# Patent publication US4455315A, “N-(Difluoromethoxy substituted phenyl)-dichloromaleimides used in agricultural and horticultural fungicidal methods” (Showa Denko Kabushiki Kaisha, priority 1980, dated 1984)
# Tests used:
# [1] = system: Alternaria kikuchiana; experiment: Pear Black Spot-controlling Test; details: 500 ppm, six days after inoculation
# Method: Pear Black Spot (Alternaria kikuchiana)-controlling Test
# (§1) The resulting solution is sprayed on unfolded leaves of potted young pears (variety: Niju-seiki) in an amount corresponding to 600 l/10a per pot. After air-drying, the unfolded leaves are inoculated with Alternaria kikuchiana, by spraying a suspension of conidia thereof containing 30 conidia per microscopic field (magnification: X200).
# (§2) After inoculation, the potted young pears are allowed to stand at a temperature of 27° C. in a moist room for one day and then transferred to a greenhouse. Six days after inoculation, the leaf area infested by pear black spot, i.e., the area of pathologic spots on a leaf is examined on 5 unfolded leaves per pot and an average infestation rate is then calculated.
# [2] = system: potted young pears (variety: Niju-seiki); experiment: Phytotoxicity of treating compound, Pear Black Spot test; details: 500 ppm, damaged area on leaves
# Method: as §1, §2
# *The phytotoxicity of the treating compound is evaluated according to the
# [3] = system: potted young oranges (variety: Unshu); experiment: Phytotoxicity of treating compound, Citrus Melanose test; details: 500 ppm
# [4] = system: Diaporthe citri; experiment: Test of Residual Activity against Citrus Melanose; format: in vivo; details: 1000 ppm, 23 mm/hr of rain; for Infested Leaves (%): 24 days after inoculation; for Infestation Rate: 24 days, (Σnf/4N)×100; for Number of Leaves Showing Each Infestation Index: 0: index 0 = 0-25% infested area; for Number of Leaves Showing Each Infestation Index: 1: index 1 = 26-50% infested area; for Number of Leaves Showing Each Infestation Index: 2: index 2 = 51-75% infested area; for Number of Leaves Showing Each Infestation Index: 3: index 3 = 76-90% infested area; for Number of Leaves Showing Each Infestation Index: 4: index 4 = 91-100% infested area
# [5] = system: Alternaria kikuchiana; experiment: Spore-germination Inhibiting Test; format: cell-based; details: 10 ppm, 27° C., 20 hours
# Method: Spore-germination Inhibiting Test for Alternaria kukuchiana An apricot medium is inoculated with Alternaria kikuchiana and incubated at a temperature of 27° C. for 7-10 days to form conidia on the medium. […] 0.02 Ml of the prepared spore suspension containing the compound according to the present invention is dropped on a slide glass and incubated at a temperature of 27° C. under moist conditions for 20 hours. Thereafter, whether or not the spores germinate is examined under a microscope and the spore-germination rate is then calculated.
# [6] = system: Diaporthe citri; experiment: Citrus Melanose-controlling Test; format: in vivo; details: 500 ppm; for Infested Leaves (%): 24 days after inoculation; for Infestation Rate / Number of Leaves Showing Infestation Index 0 / Number of Leaves Showing Infestation Index 1 / Number of Leaves Showing Infestation Index 2 / Number of Leaves Showing Infestation Index 3 / Number of Leaves Showing Infestation Index 4: 24 days; for Infestation Rate: (Σnf/4N)×100; for Number of Leaves Showing Infestation Index 0: index 0 = 0-25% infested area; for Number of Leaves Showing Infestation Index 1: index 1 = 26-50% infested area; for Number of Leaves Showing Infestation Index 2: index 2 = 51-75% infested area; for Number of Leaves Showing Infestation Index 3: index 3 = 76-90% infested area; for Number of Leaves Showing Infestation Index 4: index 4 = 91-100% infested area
# [7] = system: potted young oranges (variety: Unshu); experiment: Phytotoxicity of treating compound, residual activity test; details: 1000 ppm, 23 mm/hr of rain
SMILES,Average Infestation Rate (%) (Based on infested area) [1],Phytotoxicity of Treating Compound [2],Phytotoxicity of Treating Compound [3],Infested Leaves (%) [4],Infestation Rate [4],Number of Leaves Showing Each Infestation Index: 0 [4],Number of Leaves Showing Each Infestation Index: 1 [4],Number of Leaves Showing Each Infestation Index: 2 [4],Number of Leaves Showing Each Infestation Index: 3 [4],Number of Leaves Showing Each Infestation Index: 4 [4],Spore-germination Rate (%) [5],Infested Leaves (%) [6],Infestation Rate [6],Number of Leaves Showing Infestation Index 0 [6],Number of Leaves Showing Infestation Index 1 [6],Number of Leaves Showing Infestation Index 2 [6],Number of Leaves Showing Infestation Index 3 [6],Number of Leaves Showing Infestation Index 4 [6],Phytotoxicity of Treating Compound [7]
"CC(C)NC(=O)N1CC(=O)N(c2cc(Cl)cc(Cl)c2)C1=O [iprodione, 1-Isopropylcarbamoyl-3-(3',5'-dichlorophenyl)-hydantoin]",11%,- (0%),–,–,–,–,–,–,–,–,–,–,–,–,–,–,–,–,–
"O=C1C(Cl)=C(Cl)C(=O)N1c1cccc(OC(F)F)c1 [compound 2, 2,3-dichloro-N-(m-difluoromethoxyphenyl)maleimide]",9%,± (1-5%),- (0%),2%,0.5,181 leaves,4 leaves,0 leaves,0 leaves,0 leaves,0%,0.5%,0.1,210 leaves,1 leaves,0 leaves,0 leaves,0 leaves,± (1-5%)
"O=C1C(Cl)=C(Cl)C(=O)N1c1ccccc1OC(F)F [compound 1, 2,3-dichloro-N-(o-difluoromethoxyphenyl)maleimide]",9%,± (1-5%),- (0%),22%,7,122 leaves,27 leaves,6 leaves,1 leaves,0 leaves,7%,0.5%,0.1,221 leaves,1 leaves,0 leaves,0 leaves,0 leaves,± (1-5%)
COc1cccc(N2C(=O)C(Cl)=C(Cl)C2=O)c1 [compound 8],20%,± (1-5%),- (0%),78%,31,35 leaves,58 leaves,61 leaves,7 leaves,0 leaves,25%,10%,3.3,109 leaves,14 leaves,7 leaves,1 leaves,0 leaves,- (0%)
COc1ccc(N2C(=O)C(Cl)=C(Cl)C2=O)cc1 [compound 9],28%,± (1-5%),- (0%),36%,12,113 leaves,45 leaves,18 leaves,1 leaves,0 leaves,9%,98%,43,5 leaves,86 leaves,115 leaves,30 leaves,0 leaves,- (0%)
O=C1C=CC(=O)N1c1ccc(OC(F)F)cc1 [compound 6],36%,++ (26-50%),+ (6-25%),91%,34,15 leaves,86 leaves,45 leaves,13 leaves,0 leaves,4%,98%,43,257 leaves,110 leaves,103 leaves,44 leaves,0 leaves,+ (6-25%)
"[Cu+2].[O-]c1cccc2cccnc12.[O-]c1cccc2cccnc12 [oxinecopper, 8-Hydroxyquinoline-Cu]",–,–,–,81%,26,35 leaves,113 leaves,37 leaves,2 leaves,0 leaves,–,–,–,–,–,–,–,–,± (1-5%)
O=C1C=CC(=O)N1c1ccccc1OC(F)F [compound 4],15%,± (1-5%),- (0%),82%,30,30 leaves,82 leaves,43 leaves,10 leaves,0 leaves,7%,1.0%,0.2,218 leaves,2 leaves,0 leaves,0 leaves,0 leaves,+ (6-25%)
